Each structure is given as a SMILES string. Active and inactive are the calls of the source.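 How the source made its calls: active means growth-inhibition EC50 no more than tenfold above the top tested dose; inconclusive means flat fit between 30% and 70% inhibition, or unreliable fit; inactive means EC50 more than tenfold above the top tested dose.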

This passage reports EC50 results from PubChem BioAssay AID1959 (Broad Institute, 2009).

In the experiment the test system is E. coli NEB5alpha growth, BacTiter-Glo luminescence, 4 h. The experiment can be described thus: Escherichia coli growth inhibition, dose response, counter-screen for MEX-5/POS-1 RNA-binding inhibitor project, luminescence, NEB5alpha (AID 1959;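 further: pUC19-transformed ampicillin-resistant cells grown in LB with ampicillin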). (In general: Counterscreens check selectivity or assay interference.)
In general, EC50 refers to the concentration that produces a half-maximal response. Consider `CC1(OC(=O)c2ccco2)C(=O)C=C2C=C(C3CC3)OC=C2C1=O` (configuration not stated), for which the EC50 was > 11 µM (inactive).

Turning to `COCCNC(=O)C1Nc2ccc(OC(F)(F)F)cc2C2C=CCC12` (configuration not stated), the EC50 is > 11 µM (inactive). On to `O=C(CC1Nc2ccccc2NC1=O)Nc1cc(Cl)cc(Cl)c1` (configuration not stated), for which the EC50 was > 11 µM (inactive). With `Cc1ccc(N=Cc2cc(Br)cc(Cl)c2O)cc1` the figure was > 11 µM (inactive). For the compound `COCCCNC(CC(=O)Nc1cc(C)cc(C)c1)C(=O)O` (configuration not stated), the EC50 is > 11 µM (inactive). Take `CCCn1c(N)c(N(CCOC)C(=O)Cc2ccc(S(=O)(=O)N3CCOCC3)s2)c(=O)[nH]c1=O`: the EC50 was > 11 µM (inactive).

For the compound `CCCCc1ccc(/C=C2\C(=O)ON=C2c2ccccc2)s1`, the EC50 is > 11 µM (inactive).

`COc1ccc(N=Cc2c(O)n(-c3cccc(C)n3)c(=O)c3ccccc23)cc1`: the EC50 is > 11 µM (inactive). In the case of `COc1ccccc1N1C(=O)C(Cl)=C(Nc2ccccc2O)C1=O`, the EC50 is > 11 µM (inactive). In the case of `CCOC(=O)c1ccc(N/C=C2\CCCCC2=O)cc1`, the EC50 is > 11 µM (inactive). Turning to `O=C(CSCc1c(Cl)cccc1Cl)NCC1CCCO1` (configuration not stated), the EC50 is > 11 µM (inactive). Turning to `N#CC1=C(N)OC2=C(C(=O)CC(c3ccco3)C2)C1c1ccc(OCc2c(F)cccc2Cl)cc1` (configuration not stated), the EC50 is > 11 µM (inactive). Turning to `C=CCNC(=S)Nc1cc(Cl)ccc1OC`, the EC50 was > 11 µM (inactive). Under `COc1ccc(/C=C/C(=O)c2c(C)cc(C)[nH]c2=O)c2ccccc12` stands > 11 µM (inactive); under `CC1=NN(c2ccc(C(=O)O)c(N)c2)C(=O)C1`, > 11 µM (inactive).

As to `CCCN1CCCc2cc(CN)ccc21`, the EC50 is > 11 µM (inactive). `O=C(O)CC(C(=O)O)N1C(=O)/C(=C/C=C/c2ccco2)SC1=S` (configuration not stated): the EC50 is > 11 µM (inactive). On to `CCCN1C(=O)c2cccc3c(N4CCCCC4)ccc(c23)C1=O`, for which the EC50 is > 11 µM (inactive). In the case of `N#CC1=C(N)OC2=C(C(=O)CCC2)C1c1cc2c(cc1Cl)OCO2` (configuration not stated), the EC50 was > 11 µM (inactive). For the compound `CCN(C(=O)c1cc(Cl)ccc1OC)C1CCCCC1`, the EC50 was > 11 µM (inactive). For the compound `COc1cc2c(cc1/C=C1/NC(=O)N(c3ccccc3)C1=O)OCO2`, the EC50 is > 11 µM (inactive). Regarding `Cc1ncc(CO)c(/C=N/NC(=O)c2cc(Br)ccc2O)c1O`, the EC50 is > 11 µM (inactive).

For `C/C(N)=C(/C#N)C(=O)CSc1ncnc2ccccc12`, the EC50 is > 11 µM (inactive). Turning to `Cc1ncc(/C=C2\C(=O)Nc3ccccc32)[nH]1`, the EC50 is > 11 µM (inactive). Regarding `O=C1c2ccccc2C(=O)c2[nH]cnc21`, the EC50 was > 11 µM (inactive). Take `NC(=S)N=Nc1ccc(NN=C(N)N)cc1`: the EC50 is > 11 µM (inactive). With `COc1ccc(NC(=O)CN2CCC(NC(=O)C3CCCCC3)CC2)c([N+](=O)[O-])c1` the figure was > 11 µM (inactive); with `N#CC1=C(N)Oc2cc(O)c(Cl)cc2C1c1ccccc1F` (configuration not stated), > 11 µM (inactive); with `Cc1cc[n+](C2=C([O-])c3ccccc3C(=O)/C2=N\S(=O)(=O)c2cccs2)cc1C`, > 11 µM (inactive).

As to `O=C1/C(=C/c2ccc(Br)cc2)Oc2cc(O)ccc21`, the EC50 is > 11 µM (inactive). Regarding `CCC(C)[C@@H](N)C(=O)N/N=C/c1cccc2nccnc12` (some centres not stated), the EC50 is > 11 µM (inactive).

For the compound `CCCCN(C(=O)c1ccc([N+](=O)[O-])o1)c1c(N)n(CC(C)C)c(=O)[nH]c1=O`, the EC50 was > 11 µM (inactive).

For the compound `Cc1cc(/C=C2\C(=O)NC(=O)N(c3ccc(Cl)cc3)C2=O)c(C)n1C`, the EC50 is > 11 µM (inactive). Consider `O=C(NC(=S)NNS(=O)(=O)c1ccccc1)c1cccnc1`, for which the EC50 is > 11 µM (inactive).

On to `O=C(/C=C/c1ccco1)NC(=S)Nc1cccc(C(=O)O)c1`, for which the EC50 was > 11 µM (inactive). On to `Cc1ccn2c(=O)nc(SCC(=O)Nc3cc(C)on3)nc2c1`, for which the EC50 was > 11 µM (inactive).

In the case of `CCN(CC)c1ccc(N=Cc2c(O)n(-c3ccccc3)c(=O)[nH]c2=O)cc1`, the EC50 is > 11 µM (inactive). With `NS(=O)(=O)c1cc(C(=O)NC2CCSc3ccccc32)ccc1Cl` (configuration not stated) the figure was > 11 µM (inactive); with `CC(C)(C)c1ccc(OCc2ccc(C(=O)Nc3cccnc3)o2)cc1`, > 11 µM (inactive); with `N#C/C(=C/c1cccn1-c1cccc(C(=O)O)c1)c1ccc(Cl)cc1`, > 11 µM (inactive). Turning to `Cc1ccc(N=Nc2[nH]c3ccccc3c2O)cc1`, the EC50 was > 11 µM (inactive). As to `Cc1ccc(N2C(=O)NC(=O)/C(=C\c3cc(C)n(-c4ccc(C(=O)O)cc4)c3C)C2=O)cc1`, the EC50 is > 11 µM (inactive). For `O=C1Nc2cc(Cl)cnc2N2CCCC12` (configuration not stated), the EC50 is > 11 µM (inactive).

`COc1ccc(/C=C2/N=C(c3cccs3)OC2=O)cc1OC(C)C`: the EC50 is > 11 µM (inactive). Turning to `COc1ccc(C2CC(c3cccs3)=NN2c2ccc(C=O)cc2)cc1` (configuration not stated), the EC50 was > 11 µM (inactive). With `CCc1ccccc1N1C(=O)NC(=O)/C(=C\c2cc(C)n(C)c2C)C1=O` the figure was > 11 µM (inactive); with `CC1(C)CC(=O)C2=C(C1)OC(N)=C(C#N)C2c1cc2c(cc1[N+](=O)[O-])OCO2` (configuration not stated), > 11 µM (inactive); with `Cc1c(/C=N/Nc2ccc(F)cc2)c(O)n(C)c(=O)c1C#N`, > 11 µM (inactive). As for `O=C1N=c2ccc(Br)cc2=C1c1sc(=O)[nH]c1O`, the EC50 was > 11 µM (inactive).

For the compound `Cn1c(=O)[nH]c2cc(Cl)cnc21`, the EC50 was > 11 µM (inactive). Regarding `O=[N+]([O-])c1ccc(C2=Nc3cc(Cl)ccc3OC2)cc1`, the EC50 was > 11 µM (inactive). Under `CN1CCc2cccc3c2C1Cc1ccc(O)c(O)c1-3` (configuration not stated) stands > 11 µM (inactive); under `CC(=O)c1sc2nc(-c3cccs3)cc(C(F)(F)F)c2c1N`, > 11 µM (inactive). Take `CCN(CC)c1ccc(/C=C2\C(=O)NC(=S)N(C)C2=O)o1`: the EC50 is > 11 µM (inactive).

Regarding `Oc1ccc(C2C[C@H]3CC[C@@H]2C3)cc1O` (some centres not stated), the EC50 is > 11 µM (inactive). In the case of `Cc1cc(C)c(S(=O)(=O)Nc2cc(SCC(=O)O)c(O)c3ccccc23)cc1C`, the EC50 is > 11 µM (inactive). On to `CN1C(=O)C(=Cc2ccc(SC3CCCCC3)o2)C(=O)N(C)C1=O`, for which the EC50 is > 11 µM (inactive). Under `COC(=O)c1c(=O)n(O)c2ccc(OC)cc2[n+]1[O-]` stands > 11 µM (inactive); under `Cc1nn(C(C)C(=O)N2CCOCC2)c(=O)c2nn(-c3ccccc3)c(C)c12` (configuration not stated), > 11 µM (inactive). Regarding `CCCN1CCc2cc(O)cc3c2[C@H]1Cc1ccc(O)c(O)c1-3`, the EC50 was > 11 µM (inactive).

With `Cc1cc(C)c(-n2c(O)c(/C=N/NC(=O)c3ccncc3)c(=O)[nH]c2=O)c(C)c1`, the EC50 was > 11 µM (inactive). On to `COc1ccc(C2=CC3=C(Br)C(=O)C(C)(OC(=O)c4ccc(Cl)nc4)C(=O)C3=CO2)cc1` (configuration not stated), for which the EC50 was > 11 µM (inactive). With `N#CC1=C(N)C(C#N)(C#N)[C@H](c2ccsc2)[C@H]2COCC=C12` the figure was > 11 µM (inactive). Turning to `O=C(O)c1ccccc1N(c1ccccc1)c1ccccc1`, the EC50 is > 11 µM (inactive). As for `COC(=O)CCCC1=CC2=CC(=O)C(C)(OC(=O)C3CCCC3)C(=O)C2=CO1` (configuration not stated), the EC50 is > 11 µM (inactive). `COc1cccc(N=Nc2c(=O)[nH]n3c(=O)cc(C)[nH]c23)c1`: the EC50 is > 11 µM (inactive). With `Cc1cccn2c(=O)c3cc(C(=O)NC4CCCC4)c(=N)n(CCc4ccccc4)c3nc12`, the EC50 was > 11 µM (inactive). Regarding `c1coc(-c2nnc(-c3ccco3)nn2)c1`, the EC50 was > 11 µM (inactive). In the case of `COc1ccc(N=Cc2c(O)n(-c3cccc(C)n3)c(=O)c3ccccc23)c(OC)c1`, the EC50 is > 11 µM (inactive).

Regarding `CCCCC1=CC2=CC(=O)C(C)(OC(=O)CCc3ccccc3)C(=O)C2=CO1` (configuration not stated), the EC50 was > 11 µM (inactive). On to `N=C1/C(=C\c2ccc(SCc3ccco3)o2)C(=O)N=C2SC=NN12`, for which the EC50 was > 11 µM (inactive). With `OC(C#Cc1ccccn1)c1cccs1` (configuration not stated) the figure was > 11 µM (inactive); with `Cc1ccc(N2C(=O)NC(=O)/C(=C\c3cc(C)n(-c4cc(C(=O)O)cc(C(=O)O)c4)c3C)C2=O)cc1`, > 11 µM (inactive); with `O=C1c2cccc3c(O)ccc(c23)C(=O)N1c1ccc(Cl)cc1`, > 11 µM (inactive). As to `C[C@@H]1O[C@@H](Oc2c(-c3cc(O)c(O)c(O)c3)oc3cc(O)cc(O)c3c2=O)[C@H](O)[C@H](O)[C@H]1O`, the EC50 is > 11 µM (inactive). Consider `CC(C)OCC(O)CN1CCN(CCN2C(=O)c3cccc4cccc(c34)C2=O)CC1` (configuration not stated), for which the EC50 was > 11 µM (inactive). `CCCOc1cccc(C2C(C(=O)c3ccco3)=C(O)C(=O)N2c2nnc(C)s2)c1` (configuration not stated): the EC50 is > 11 µM (inactive). Turning to `CCO/C(C)=N/n1c2nc3ccccc3nc2c2c(=O)n(C3CCCC3)c(C)nc21`, the EC50 was > 11 µM (inactive). For `Cc1ccc(/C(O)=C/c2nc3cc(C)ccc3oc2=O)cc1`, the EC50 was > 11 µM (inactive).

On to `CN1/C(=C/C=C(C#N)C#N)C(C)(C)c2ccccc21`, for which the EC50 was > 11 µM (inactive). For `CCc1ccc(C(=O)NNC(=O)c2ccc(=O)n(C)n2)cc1`, the EC50 is > 11 µM (inactive). With `COc1cccc(N2C(=O)NC(=O)/C(=C/c3ccc([N+](=O)[O-])s3)C2=O)c1` the figure was > 11 µM (inactive); with `O=C(CCN1C(=O)C2CC=C(Cl)CC2C1=O)N1CCCCC1` (configuration not stated), > 11 µM (inactive). As to `COc1cccc(-n2c(O)c(C=Nc3c(C)n(C)n(-c4ccccc4)c3=O)c(=O)[nH]c2=O)c1`, the EC50 is > 11 µM (inactive). With `O=S(=O)(c1ccccc1)N1CCC(O)(CSc2ccc(Cl)cc2)CC1`, the EC50 is > 11 µM (inactive). Regarding `O=C(c1ccco1)[C@@H]1[C@@H]2C(=O)N(c3ccccc3)C(=O)[C@@H]2C2c3ccccc3C=CN21` (some centres not stated), the EC50 is > 11 µM (inactive).

For `Cc1nc2cc(N)ccc2n1C1CCCCC1`, the EC50 is > 11 µM (inactive).
